Values of other authors, collected in US20130252988A1, “COMPOSITIONS AND METHODS FOR TREATING MYELOFIBROSIS” (TARGEGEN, INC., priority 2010, published 2013).

Conditions: Kantarjian H M et al., Blood 110:3540-3546, 2007; cited from earlier work

In the case of `Cc1cn(-c2cc(NC(=O)c3ccc(C)c(Nc4nccc(-c5cccnc5)n4)c3)cc(C(F)(F)F)c2)cn1` [nilotinib], the “Asymptomatic hyperamylasemia, sometimes with hyperlipasemia, as toxicity” value is given as “observed”.
